Measurements reported in the Kinase Knowledgebase extract (Sharma et al. 2016).

Target: CDK2 (human) (UniProt P24941)
Assay: Enzyme Assay
Conditions: for inhibition: concentration not given here

SMILES | Ki | inhibition
Nc1nc(NC2CN(C(=O)c3ccc([N+](=O)[O-])cc3)C2)sc1C(=O)c1c(F)cccc1F | 360 nM | –
CC1(CCC(=O)N2CCC(Nc3nc(N)c(C(=O)c4c(F)cccc4F)s3)CC2)SCCS1 | – | 78%
Nc1nc(NC2CCN(S(=O)(=O)c3ccc(O)c(C(=O)O)c3)CC2)sc1C(=O)c1c(F)cccc1F | – | -16%
NC(=O)Nc1ccc(C(=O)N2CCC(Nc3nc(N)c(C(=O)c4c(F)cccc4F)s3)CC2)cc1 | – | 76%
CC/C=C\CC(=O)N1CCC(Nc2nc(N)c(C(=O)c3c(F)cccc3F)s2)CC1 | – | 85%
CCCCOc1ccc(C(C)(C)CC)cc1S(=O)(=O)N1CCC(Nc2nc(N)c(C(=O)c3c(F)cccc3F)s2)CC1 | – | -30%
Nc1nc(NC2CCN(C(=O)Cc3cc(F)cc(F)c3F)CC2)sc1C(=O)c1c(F)cccc1F | – | 44%
CSCCC(=O)N1CCC(Nc2nc(N)c(C(=O)c3c(F)cccc3F)s2)CC1 | – | 42%
CCc1ccc2[nH]c(C(=O)N3CCC(Nc4nc(N)c(C(=O)c5c(F)cccc5F)s4)CC3)cc2c1 | – | 74%
CCOc1ccc(/C=C/C(=O)N2CCC(Nc3nc(N)c(C(=O)c4c(F)cccc4F)s3)CC2)cc1 | – | 34%
Nc1nc(NC2CCN(C(=O)[C@@H](O)C3CCCCC3)CC2)sc1C(=O)c1c(F)cccc1F | – | 51%
CCCOc1ccc(C(=O)N2CCC(Nc3nc(N)c(C(=O)c4c(F)cccc4F)s3)CC2)cc1 | – | 77%
[N-]=[N+]=C1C=C(S(=O)(=O)N2CCC(Nc3nc(N)c(C(=O)c4c(F)cccc4F)s3)CC2)c2ccccc2C1=O | – | -11%
Nc1nc(NC2CCN(C(=O)c3ccc4[nH]cnc4c3)CC2)sc1C(=O)c1c(F)cccc1F | – | 72%
CC(=O)c1ccc(O)c(C(=O)N2CCC(Nc3nc(N)c(C(=O)c4c(F)cccc4F)s3)CC2)c1 | – | 9%
COc1ccc2[nH]c(C(=O)N3CCC(Nc4nc(N)c(C(=O)c5c(F)cccc5F)s4)CC3)cc2c1 | – | 35%
CC1CCCCC1C(=O)N1CCC(Nc2nc(N)c(C(=O)c3c(F)cccc3F)s2)CC1 (stereo not drawn) | – | 43%
CC/C=C/CC(=O)N1CCC(Nc2nc(N)c(C(=O)c3c(F)cccc3F)s2)CC1 | – | 46%
COc1cc(C(O)C(=O)N2CCC(Nc3nc(N)c(C(=O)c4c(F)cccc4F)s3)CC2)ccc1O (stereo not drawn) | – | 26%
Nc1nc(NC2CCN(C(=O)[C@H]3CCC(=O)O3)CC2)sc1C(=O)c1c(F)cccc1F | – | 76%
COCCOC(=O)N1CCC(Nc2nc(N)c(C(=O)c3c(F)cccc3F)s2)CC1 | – | -11%
COc1cccc(CC(=O)N2CCC(Nc3nc(N)c(C(=O)c4c(F)cccc4F)s3)CC2)c1OC | – | 70%
Nc1nc(NC2CCN(S(=O)(=O)c3c(Cl)cc(C(F)(F)F)cc3Cl)CC2)sc1C(=O)c1c(F)cccc1F | – | -23%
Nc1nc(NC2CCN(C(=O)C3(c4ccc(Cl)cc4)CC3)CC2)sc1C(=O)c1c(F)cccc1F | – | -1%
CC(=O)N1CCC(C(=O)N2CCC(Nc3nc(N)c(C(=O)c4c(F)cccc4F)s3)CC2)CC1 | – | 36%
Nc1nc(NC2CCN(C(=O)COc3ccc(F)cc3)CC2)sc1C(=O)c1c(F)cccc1F | – | 83%

SMILES | Ki | inhibition
CCCCOc1ccc(C(C)(C)CC(C)(C)C)cc1S(=O)(=O)N1CCC(Nc2nc(N)c(C(=O)c3c(F)cccc3F)s2)CC1 | – | -28%
Nc1nc(NC2CCN(C(=O)CCCS)CC2)sc1C(=O)c1c(F)cccc1F | – | 23%
COc1cc(SC)ccc1C(=O)N1CCC(Nc2nc(N)c(C(=O)c3c(F)cccc3F)s2)CC1 | – | 22%
Cc1cc(C)cc(CC(=O)N2CCC(Nc3nc(N)c(C(=O)c4c(F)cccc4F)s3)CC2)c1 | – | 75%
CCC(C)(O)CC(=O)N1CCC(Nc2nc(N)c(C(=O)c3c(F)cccc3F)s2)CC1 (stereo not drawn) | – | 47%
CCCCC(=O)N1CCC(Nc2nc(N)c(C(=O)c3c(F)cccc3F)s2)CC1 | – | 48%
Nc1nc(NC2CCN(C(=O)COc3cc(Cl)c(Cl)cc3Cl)CC2)sc1C(=O)c1c(F)cccc1F | – | -10%
CC(=O)Oc1c(C)cccc1C(=O)N1CCC(Nc2nc(N)c(C(=O)c3c(F)cccc3F)s2)CC1 | – | 50%
COc1ccc(OCC(=O)N2CCC(Nc3nc(N)c(C(=O)c4c(F)cccc4F)s3)CC2)cc1 | – | 74%
CC(=O)SC[C@@H](C)C(=O)N1CCC(Nc2nc(N)c(C(=O)c3c(F)cccc3F)s2)CC1 | – | 46%
CC1(C)C2CC[C@@]1(CS(=O)(=O)N1CCC(Nc3nc(N)c(C(=O)c4c(F)cccc4F)s3)CC1)C(=O)C2 | – | -34%
CC(=O)CCCC(=O)N1CCC(Nc2nc(N)c(C(=O)c3c(F)cccc3F)s2)CC1 | – | 68%
CCOCCC(=O)N1CCC(Nc2nc(N)c(C(=O)c3c(F)cccc3F)s2)CC1 | – | 18%
CCCC/C=C/C(=O)N1CCC(Nc2nc(N)c(C(=O)c3c(F)cccc3F)s2)CC1 | – | 27%
Nc1nc(NC2CCN(C(=O)/C=C/c3cc(O)ccc3O)CC2)sc1C(=O)c1c(F)cccc1F | – | 80%
CCOC(=O)CCCC(=O)N1CCC(Nc2nc(N)c(C(=O)c3c(F)cccc3F)s2)CC1 | – | -6%
Nc1nc(NC2CCN(C(=O)c3csc([N+](=O)[O-])c3)CC2)sc1C(=O)c1c(F)cccc1F | – | 48%
CN(CC(=O)N1CCC(Nc2nc(N)c(C(=O)c3c(F)cccc3F)s2)CC1)C(=O)OC(C)(C)C | – | 12%
CN(C)c1ccc(N=Nc2ccc(S(=O)(=O)N3CCC(Nc4nc(N)c(C(=O)c5c(F)cccc5F)s4)CC3)cc2)cc1 | – | -20%
Nc1nc(NC2CCN(C(=O)Cc3sc(O)nc3O)CC2)sc1C(=O)c1c(F)cccc1F | – | 58%
Cc1c(S(=O)(=O)N2CCC(Nc3nc(N)c(C(=O)c4c(F)cccc4F)s3)CC2)sc2ccc(Cl)cc12 | – | -2%
Nc1nc(NC2CCN(C(=O)c3ccccc3COC(=O)c3ccccc3)CC2)sc1C(=O)c1c(F)cccc1F | – | -9%
COc1cc(N)ccc1/C=C/C(=O)N1CCC(Nc2nc(N)c(C(=O)c3c(F)cccc3F)s2)CC1 | – | 56%
Nc1nc(NC2CCN(S(=O)(=O)CCCn3cncn3)CC2)sc1C(=O)c1c(F)cccc1F | 4.4 nM | –
Cc1ccc(C)c(OCC(=O)N2CCC(Nc3nc(N)c(C(=O)c4c(F)cccc4F)s3)CC2)c1 | – | 26%

Next, values leading:

Ki | inhibition | SMILES
– | 66% | Nc1nc(NC2CCN(C(=O)Cc3ccccc3)CC2)sc1C(=O)c1c(F)cccc1F
– | 33% | CC(C)(C(=O)N1CCC(Nc2nc(N)c(C(=O)c3c(F)cccc3F)s2)CC1)c1ccccc1
– | 58% | Nc1nc(NC2CCN(C(=O)c3cnccn3)CC2)sc1C(=O)c1c(F)cccc1F
– | -7% | CN(C(=O)N1CCC(Nc2nc(N)c(C(=O)c3c(F)cccc3F)s2)CC1)c1ccccc1
– | 57% | Nc1nc(NC2CCN(C(=O)CNc3ccccc3)CC2)sc1C(=O)c1c(F)cccc1F
– | 51% | Nc1nc(NC2CCN(C(=O)Cc3cccc4ccccc34)CC2)sc1C(=O)c1c(F)cccc1F
– | 15% | C=CCC(=O)N1CCC(Nc2nc(N)c(C(=O)c3c(F)cccc3F)s2)CC1
– | 23% | Nc1nc(NC2CCN(C(=O)CSc3ccncc3)CC2)sc1C(=O)c1c(F)cccc1F
– | 21% | C[C@@H](C(=O)N1CCC(Nc2nc(N)c(C(=O)c3c(F)cccc3F)s2)CC1)c1ccccc1
– | 12% | Nc1nc(NC2CCN(C(=O)c3nc4ccccc4nc3O)CC2)sc1C(=O)c1c(F)cccc1F
– | 56% | Nc1nc(NC2CCN(C(=O)CCc3c[nH]c4ccccc34)CC2)sc1C(=O)c1c(F)cccc1F
– | -29% | CO[C@](C(=O)N1CCC(Nc2nc(N)c(C(=O)c3c(F)cccc3F)s2)CC1)(c1ccccc1)C(F)(F)F
– | -34% | Nc1nc(NC2CCN(C(=O)C(c3ccccc3)c3ccccc3)CC2)sc1C(=O)c1c(F)cccc1F
– | 50% | CO[C@H](C(=O)N1CCC(Nc2nc(N)c(C(=O)c3c(F)cccc3F)s2)CC1)c1ccccc1
– | 5% | Nc1nc(NC2CCN(C(=O)CCC(=O)c3ccccc3)CC2)sc1C(=O)c1c(F)cccc1F
– | 60% | Cc1cccc(C(=O)N2CCC(Nc3nc(N)c(C(=O)c4c(F)cccc4F)s3)CC2)n1
– | 18% | CC(Oc1ccc(O)cc1)C(=O)N1CCC(Nc2nc(N)c(C(=O)c3c(F)cccc3F)s2)CC1 (stereo not drawn)
– | 75% | NC(=S)Nc1cccc(C(=O)N2CCC(Nc3nc(N)c(C(=O)c4c(F)cccc4F)s3)CC2)c1
– | 72% | COc1ccc(C(=O)N2CCC(Nc3nc(N)c(C(=O)c4c(F)cccc4F)s3)CC2)cc1F

Ki | inhibition | SMILES
– | 67% | C[C@H](O)C(=O)N1CCC(Nc2nc(N)c(C(=O)c3c(F)cccc3F)s2)CC1
– | 58% | Nc1nc(NC2CCN(C(=O)/C=C/C=C/c3ccccc3)CC2)sc1C(=O)c1c(F)cccc1F
– | 38% | Nc1nc(NC2CCN(C(=O)c3ccc4ccccc4c3)CC2)sc1C(=O)c1c(F)cccc1F
– | 31% | Cc1ccoc1C(=O)N1CCC(Nc2nc(N)c(C(=O)c3c(F)cccc3F)s2)CC1
– | 46% | Nc1nc(NC2CCN(C(=O)c3ccc[n+]([O-])c3)CC2)sc1C(=O)c1c(F)cccc1F
– | 17% | CC(=O)CC(C(=O)N1CCC(Nc2nc(N)c(C(=O)c3c(F)cccc3F)s2)CC1)c1ccccc1 (stereo not drawn)
– | 64% | Nc1nc(NC2CCN(C(=O)c3cc4ccccc4o3)CC2)sc1C(=O)c1c(F)cccc1F
– | -13% | Nc1nc(NC2CCN(C(=O)C3(c4ccccc4)CCCC3)CC2)sc1C(=O)c1c(F)cccc1F
– | 70% | Cc1cccc(OCC(=O)N2CCC(Nc3nc(N)c(C(=O)c4c(F)cccc4F)s3)CC2)c1
– | -43% | CN(C)C(=O)N1CCC(Nc2nc(N)c(C(=O)c3c(F)cccc3F)s2)CC1
– | 59% | Nc1nc(NC2CCN(C(=O)CS/C=C\c3ccccc3)CC2)sc1C(=O)c1c(F)cccc1F
– | -32% | Nc1nc(NC2CCN(C(=O)OCc3ccccc3)CC2)sc1C(=O)c1c(F)cccc1F
– | 20% | Cc1ccc(C(=O)N2CCC(Nc3nc(N)c(C(=O)c4c(F)cccc4F)s3)CC2)cn1
– | 52% | Cc1ccc(F)cc1C(=O)N1CCC(Nc2nc(N)c(C(=O)c3c(F)cccc3F)s2)CC1
– | 75% | CN(C)c1ccc(/C=C/C(=O)N2CCC(Nc3nc(N)c(C(=O)c4c(F)cccc4F)s3)CC2)cc1
– | 25% | CC(=O)OCC(=O)N1CCC(Nc2nc(N)c(C(=O)c3c(F)cccc3F)s2)CC1
– | 58% | Nc1nc(NC2CCN(C(=O)Cc3ccc(Cl)cc3)CC2)sc1C(=O)c1c(F)cccc1F
– | 56% | CC(=O)Oc1cccc(C(=O)N2CCC(Nc3nc(N)c(C(=O)c4c(F)cccc4F)s3)CC2)c1
